Assay [1] concerns the target T1, M2 muscarinic receptor subtype (Rattus norvegicus, UniProt P10980).
T1 construct: Submandibular glands and heart were isolated and placed in ice cold homogenising buffer; from tissue; host or cells: rat heart membrane homogenate
T1 sequence (P10980 1-466): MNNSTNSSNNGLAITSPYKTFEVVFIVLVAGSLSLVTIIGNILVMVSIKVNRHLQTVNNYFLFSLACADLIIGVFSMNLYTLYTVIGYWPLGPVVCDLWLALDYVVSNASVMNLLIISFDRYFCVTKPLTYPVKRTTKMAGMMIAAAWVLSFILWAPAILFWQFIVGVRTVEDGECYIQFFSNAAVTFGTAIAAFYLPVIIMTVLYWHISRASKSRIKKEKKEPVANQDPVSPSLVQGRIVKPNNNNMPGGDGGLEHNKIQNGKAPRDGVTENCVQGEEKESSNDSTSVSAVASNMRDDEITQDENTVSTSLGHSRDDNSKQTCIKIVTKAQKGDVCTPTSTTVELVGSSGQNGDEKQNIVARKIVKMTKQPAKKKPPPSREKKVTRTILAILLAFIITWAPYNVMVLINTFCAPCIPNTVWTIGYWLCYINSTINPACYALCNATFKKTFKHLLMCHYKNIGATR
The experiment in a line: biochemical. The format is binding.

Assay [2] deals with T2, M3 muscarinic receptor subtype (Rattus norvegicus, UniProt P08483).
T2 construct: Submandibular glands and heart were isolated and placed in ice cold homogenising buffer; from tissue; host or cells: rat submandibular gland membrane homogenate
T2 sequence (P08483 whole entry): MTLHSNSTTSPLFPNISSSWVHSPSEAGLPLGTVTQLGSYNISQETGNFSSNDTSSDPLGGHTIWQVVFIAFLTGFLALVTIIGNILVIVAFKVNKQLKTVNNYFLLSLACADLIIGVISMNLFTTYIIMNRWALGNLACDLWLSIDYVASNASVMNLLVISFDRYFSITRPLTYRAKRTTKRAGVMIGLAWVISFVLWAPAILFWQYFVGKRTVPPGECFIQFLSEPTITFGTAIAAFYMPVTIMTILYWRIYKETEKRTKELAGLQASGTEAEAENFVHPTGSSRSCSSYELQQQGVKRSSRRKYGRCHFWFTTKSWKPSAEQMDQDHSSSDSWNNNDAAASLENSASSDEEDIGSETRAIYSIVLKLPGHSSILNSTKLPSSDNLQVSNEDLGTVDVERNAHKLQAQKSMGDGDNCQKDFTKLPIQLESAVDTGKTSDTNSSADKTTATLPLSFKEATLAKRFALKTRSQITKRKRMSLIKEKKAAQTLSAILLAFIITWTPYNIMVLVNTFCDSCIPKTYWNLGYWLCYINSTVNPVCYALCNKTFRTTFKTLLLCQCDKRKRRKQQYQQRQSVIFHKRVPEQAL
The experiment in a line: biochemical. The format is binding.

For another assay, the system named is isolated rat bladder. The experiment in a line: tissue or blood. The format is cell-based. The conditions noted are these: read-out: Functional Assay pkB.

From patent publication US7560479B2 (priority 2003, dated 2009) come the findings set out here.

Structures are written as SMILES. pKi: −log10 of the molar value. Where only a bound is given, the exact number is not on record here.

As to `CC(C)=CCCN1C[C@@H]2[C@H](C1)[C@H]2NC(=O)[C@@](O)(c1ccccc1)C1CCC(F)(F)C1` (single isomer, unassigned) [Compound 13B, (2S)-(1α, 5α, 6α)-6-N-[3-(4-methyl-3-pentenyl)-3-azabicyclo[3.1.0]-hexyl-2-[(1R or 1S)-3,3-difluorocyclopentyl]-2-hydroxy-2-phenylacetamide], the pKi in assay [1] is below 5.00; in assay [2], 5.70. Further, the Kb in the assay on isolated rat bladder was 67.6 nM.

In the case of `CC(C)=CCCN1CC2C(C1)C2NC(=O)C(O)(c1ccccc1)C1CCC(F)(F)C1` (single isomer, unassigned) [Compound 14, (2R)-(1α, 5α, 6α)-6-N-[3-(4-methyl-3-pentenyl)-3-azabicyclo[3.1.0]-hexyl]-2-[(1R or 1S)-3,3-difluorocyclopentyl]-2-hydroxy-2-phenylacetamide], the pKi in assay [1] is below 5.00; in assay [2], 5.80. Besides, the Kb in the assay on isolated rat bladder was 132 nM.

`O=C(N[C@H]1[C@@H]2CN(CCc3ccc4c(c3)OCO4)C[C@@H]21)[C@](O)(c1ccccc1)C1CCC(F)(F)C1` (stereo partly drawn) [Compound 9, (2R)-(1α, 5α, 6α)-6-N-[3-(2-(3,4-methylenedioxyphenyl)ethyl]-3-azabicyclo[3.1.0]-hexyl]-2-[(1R or 1S)-3,3-difluorocyclopentyl]-2-hydroxy-2-phenylacetamide]: the pKi was 5.37 in assay [1] and 7.10 in assay [2].

Consider `O=C(N[C@H]1[C@@H]2CN(CCc3ccc4c(c3)OCO4)C[C@@H]21)[C@@](O)(c1ccccc1)C1CCC(F)C1` (stereo partly drawn) [Compound 11, (2S)-(1α, 5α, 6α)-6-N-[3-(2-(3,4-methylenedioxyphenyl)ethyl]-3-azabicyclo[3.1.0]-hexyl]-2-[(1R or 1S, 3R or 3S)-3-fluorocyclopentyl]-2-hydroxy-2-phenylacetamide], for which the results for the pKi in assay [1] and in assay [2] were 5.20 and 7.20, respectively.
